# Where “and” joins values, the source holds several entries; their conditions need not be identical. Equal values may be shown once. Marks after values point to notes of the source that are not given here.
# Legend:
# [1] = In vivo pharmacokinetics in dogs; conditions: female, Beagle, dog, plasma, iv, after i.v., read-out: clearance in dogs (CLp) (converted)
# Protocol: For in vivo pharmacokinetic experiments test compounds were administered to non-rodents (e.g. female Beagle dogs) intravenously at doses of 0.1 to 1 mg/kg and intragastral at doses of 0.3 to 3 mg/kg formulated as solutions using solubilizers such as PEG400 in well-tolerated amounts and are usually given as short term infusion (15 min).
# Blood samples were taken e.g. at 2 min, 8 min, 15 min, 30 min, 45 min, 1 h, 2 h, 4 h, 6 h, 8 h and 24 h after dosing from the vena saphena. Depending on the expected half-life additional samples were taken at later time points (e.g. 48 h, 72 h).
# For pharmacokinetics after intragastral administration test compounds were given intragastral to fasted non-rodents (e.g. dogs). Blood samples were taken e.g. at 5 min, 15 min, 30 min, 45 min, 1 h, 2 h, 4 h, 6 h, 8 h and 24 h after dosing. Depending on the expected half-life additional samples were taken at later time points (e.g. 48 h, 72 h). Blood was collected into Lithium-Heparin tubes (Monovetten®, Sarstedt) and centrifuged for 15 min at 3000 rpm. […] PK parameters were calculated by non-compartmental analysis using a PK calculation software. […]
# PK parameters calculated from concentration time profiles after i.g.: Cmax: Maximal plasma concentration (in mg/L); Cmaxnorm: Cmax divided by the administered dose (in kg/L); Tmax: Time point at which Cmax was observed (in h). […]
# [2] = In vitro metabolic stability in cryopreserved human hepatocytes; type: in vitro ADME; conditions: 1 μM test compound
# Protocol: Cryopreserved Hepatocytes (e.g. purchased from Celsis InVitroTechnologies) were briefly thawed, washed with 45 mL pre-warmed in in vitro GRO HT medium and centrifuged for 5 min at 50×g. The cell pellet was resuspended in 5 ml of Krebs-Henseleit […] (KHB). Cell viability was determined by trypan blue exclusion.
# For the metabolic stability assay liver cells were distributed in WME containing 5% FCS to glass vials at a density of 1.0×10^6 vital cells/ml. The test compound was added to a final concentration of 1 μM. During incubation, the hepatocyte suspensions were continuously shaken at 580 rpm and aliquots were taken at 2, 8, 16, 30, 45 and 90 min, to which equal volumes of cold methanol were immediately added. Samples were frozen at −20° C. over night, after subsequently centrifuged for 15 minutes at 3000 rpm and the supernatant was analyzed with an Agilent 1290 HPLC-system with LCMS/MS detection.
# The half-life of a test compound was determined from the concentration-time plot. From the half-life the intrinsic clearances were calculated. Together with the additional parameters liver blood flow, amount of liver cells in vivo and in vitro. The hepatic in vivo blood clearance (CL) and the maximal oral bioavailability (Fmax) was calculated.
# human full length PDE3B = target: T1, human full length PDE3B (Homo sapiens, UniProt Q13370); experiment: PDE3B enzyme inhibition, 3H-cAMP scintillation proximity assay; type: biochemical
# T1 construct: Sf9 cells overexpressing human full length PDE3B; purchased SB Drug Discovery, UK; host or cells: Sf9 insect cells (cell extract, not purified)
# Protocol: (§1) The commercially available ^3H-cAMP Scintillation Proximity Assay (SPA, Perkin Elmer) system was used for enzyme inhibition studies. For the determination of the in vitro effect of test substances on the PDE3B reactions 2 μl of the respective test compound solution in DMSO (serial dilutions) were placed in wells of microtiter plates (Isoplate-96/200W; Perkin Elmer). 50 μl of a dilution of PDE3B cell extract from Sf9 cells overexpressing human full length PDE3B (SB Drug Discovery, UK) in buffer A (50 mM Tris/HCl pH 7.5, 8.3 mM MgCl2, 1.7 mM EDTA, 0.2% BSA) was added. The dilution of the PDE3B cell extract was chosen such that the reaction kinetics was linear and less than 70% of the substrate was consumed (typical dilution 1:6000). The reaction was started by addition of 50 μl (0.025 μCi) of 1:2000 in buffer A w/o BSA diluted substrate [8-^3H] adenosine 3′, 5′-cyclic phosphate (1 μCi/μl; Perkin Elmer). After incubation at room temperature for 60 min, the reaction was stopped by addition of 25 μl of a suspension containing 18 mg/ml yttrium scintillation proximity beads (Perkin Elmer) in water. The microtiter plates were sealed and measured in a Microbeta scintillation counter (PerkinElmer Wallac). IC50 values were determined from sigmoidal curves by plotting percentage PDE3B activity vs log compound concentration.
# human full length PDE3A = target: T2, human full length PDE3A (Homo sapiens, UniProt Q14432); experiment: PDE3A enzyme inhibition, 3H-cAMP scintillation proximity assay; type: biochemical
# T2 construct: Sf9 cells overexpressing human full length PDE3A; purchased SB Drug Discovery, UK; host or cells: Sf9 insect cells (cell extract, not purified)
# Protocol: as §1, with “PDE3A” for “PDE3B”, “1:5000).” for “1:6000).”
# HeLa cells = experiment: HeLa cell viability assay (compound sensitivity testing); type: cell-based; conditions: Homo sapiens, incubated for 48 hours
# Protocol: 1000 HeLa (DMEM), cells were plated in a 384-well plate in 40 μl of corresponding growth media supplemented with 10% Fetal Bovine Serum. 24 hours after plating, indicated compounds were added at indicated concentrations and incubated for 48 hours. Cell viability was assessed as described in Compound library screening in NCI-H1734 and A549 cell lines.
# PDE3A-CRISPR A2058 cells = experiment: Dose response in A2058 cells with CRISPR knockout of PDE3A; type: cell-based, human
# Protocol: (§2) The antiproliferative activity of the compounds of the general formula (I) was examined in vitro in human cancer cells. For this purpose, 1000 cells, including HuT78 cells, 500 HeLa cells, or 500 A2058 cells, were plated in 384-well plates with appropriate growth medium and incubated at 37° C. overnight. After 24 h, the cells on the test plate were treated with the compounds of the general formula (I) as and incubated at 37° C. for 72 h. The compounds were added to the cells by means of an HP D300 digital dispenser in a 10 (or more)—step dilution series. As control, the cells were treated with vehicle (DMSO at 0.3% final concentration). After 72 h, the cells were treated with 20 µl/well of 50% CTG solution in PBS (Promega Cell Titer Glo (catalogue # G755B and G756B)) and incubated at room temperature for 10 min, and luminescence was measured by means of a VICTOR V (Perkin Elmer), in order to determine cell viability at the end of treatment. The percentage effect on cell growth and the IC50 derived therefrom were determined for each test substance using the values from untreated wells (=percent viability). The IC50 values were calculated using a 4-parameter fit.
# CRISPR target sites were identified using the MIT CRISPR Design Tool (online MIT CRISPR design portal). For cloning of sgRNAs, forward and reverse oligonucleotides (oligos) were annealed, phosphorylated and ligated into BsmBI-digested pXPR_BRD001. Oligo sequences are as follows:
# To produce lentivirus, 293T cells were co-transfected with pXPR_BRD001, psPAX2 and pMD2.G using calcium phosphate. Infected A2058 and HeLa cells were selected with 2 μg/ml of puromycin.
# IGR37 = experiment: Cell proliferation measurement (Cell Titer Glo, 72 h); type: cell-based; conditions: Homo sapiens, IGR-37, IGR37, Melanoma
# Protocol: as §2
# SKMEL3 = experiment: as above; type: cell-based; conditions: Homo sapiens, SK-MEL3, SKMEL3, Melanoma
# Protocol: as §2
# HeLa = experiment: as above; type: cell-based; conditions: Homo sapiens, Cervical Cancer
# Protocol: as §2
# A549 = experiment: as above; type: cell-based; conditions: Homo sapiens, A549, Lung adenocarcinoma, printed as (inactive)
# Protocol: as §2
# [3] = system: xenograft models of human tumors; experiment: Murine xenotransplantation models of human cancer (overall); type: in vivo, mice; conditions: monotherapy, p.o., different xenograft models
# Protocol: (§3) The anti-tumor activity of Compound 1 was examined in murine xenotransplantation models of human cancer. For this purpose, mice were implanted subcutaneously with tumor cells. At a mean tumor size of 20-40 mm^2 animals were randomized into treatment and control groups (at least n=10 animals/group) and treatment started with vehicle only or Compound 1 (formulation: 90% PEG400/10% Ethanol; application route: per os (“p.o.”), orally). The oral application volume was 10 ml/kg. In the case of twice daily treatments, the time interval between two applications per day was 6-7h. The tumor size and the body weight were determined at least weekly. The tumor area was detected by means of an electronic caliper [length (mm)×width (mm)]. The experiment was ended when the tumors of the vehicle control reached the pre-determined ethical endpoint based on German and European animal welfare regulations. In vivo anti-tumor efficacy is presented as T/C ratio at study end (Treatment/Control; mean tumor area or weight of treatment group/mean tumor area or weight of control group) in Table 7. A compound having a T/C below 0.5 is defined as active (i.e., effective). Statistical analysis was assessed using SigmaStat software. A one-way analysis of variance was performed and differences to the control were compared by a pair-wise comparison procedure (Dunn's method).
# IGR-37 xenograft = experiment: In vivo xenotransplantation model; parameters: species or system mice; conditions: IGR-37, Melanoma, 40 mg/kg 2QD p.o.
# Protocol: as §3
# HeLa xenograft = experiment: In vivo xenotransplantation model; parameters: species or system mice; conditions: Cervical cancer, 10 mg/kg 2QD p.o., study end
# Protocol: as §3
# A2058 xenograft = experiment: In vivo xenotransplantation model; parameters: species or system mice; conditions: A2058, Melanoma, 40 mg/kg 2QD p.o.
# Protocol: as §3
# SK-MEL3 xenograft = experiment: In vivo xenotransplantation model; parameters: species or system mice; conditions: SK-MEL3, Melanoma, 40 mg/kg 2QD p.o.
# Protocol: as §3
# T2 sequence (Q14432 whole entry): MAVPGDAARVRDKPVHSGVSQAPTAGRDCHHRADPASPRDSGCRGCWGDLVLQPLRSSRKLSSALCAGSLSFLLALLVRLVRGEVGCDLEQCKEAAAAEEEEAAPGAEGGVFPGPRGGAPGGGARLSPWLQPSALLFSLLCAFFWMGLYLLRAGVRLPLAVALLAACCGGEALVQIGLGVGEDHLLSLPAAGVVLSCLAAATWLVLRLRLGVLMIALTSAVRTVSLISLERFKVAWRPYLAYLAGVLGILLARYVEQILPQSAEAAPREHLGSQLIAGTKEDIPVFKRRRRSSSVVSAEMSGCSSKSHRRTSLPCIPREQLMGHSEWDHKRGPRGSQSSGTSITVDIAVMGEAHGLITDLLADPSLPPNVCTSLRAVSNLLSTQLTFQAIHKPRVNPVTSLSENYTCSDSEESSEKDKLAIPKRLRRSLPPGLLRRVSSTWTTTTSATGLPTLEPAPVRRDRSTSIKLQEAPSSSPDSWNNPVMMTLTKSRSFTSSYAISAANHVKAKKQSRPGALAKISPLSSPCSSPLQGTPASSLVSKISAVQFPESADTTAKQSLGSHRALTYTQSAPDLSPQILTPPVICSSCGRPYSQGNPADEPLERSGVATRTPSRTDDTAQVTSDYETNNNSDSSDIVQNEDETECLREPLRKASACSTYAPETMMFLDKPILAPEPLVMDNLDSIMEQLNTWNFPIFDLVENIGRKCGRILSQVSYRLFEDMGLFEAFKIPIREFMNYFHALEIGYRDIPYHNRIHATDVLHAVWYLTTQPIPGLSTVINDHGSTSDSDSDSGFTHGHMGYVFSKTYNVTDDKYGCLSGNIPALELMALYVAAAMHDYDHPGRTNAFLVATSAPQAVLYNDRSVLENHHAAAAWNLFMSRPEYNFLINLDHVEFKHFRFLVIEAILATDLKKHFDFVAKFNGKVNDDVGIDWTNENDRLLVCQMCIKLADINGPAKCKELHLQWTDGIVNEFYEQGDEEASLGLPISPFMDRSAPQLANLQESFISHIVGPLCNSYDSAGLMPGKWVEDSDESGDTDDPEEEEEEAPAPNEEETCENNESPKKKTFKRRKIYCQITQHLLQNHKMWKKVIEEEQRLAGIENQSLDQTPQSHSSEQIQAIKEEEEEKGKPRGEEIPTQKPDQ
# T1 sequence (Q13370 whole entry): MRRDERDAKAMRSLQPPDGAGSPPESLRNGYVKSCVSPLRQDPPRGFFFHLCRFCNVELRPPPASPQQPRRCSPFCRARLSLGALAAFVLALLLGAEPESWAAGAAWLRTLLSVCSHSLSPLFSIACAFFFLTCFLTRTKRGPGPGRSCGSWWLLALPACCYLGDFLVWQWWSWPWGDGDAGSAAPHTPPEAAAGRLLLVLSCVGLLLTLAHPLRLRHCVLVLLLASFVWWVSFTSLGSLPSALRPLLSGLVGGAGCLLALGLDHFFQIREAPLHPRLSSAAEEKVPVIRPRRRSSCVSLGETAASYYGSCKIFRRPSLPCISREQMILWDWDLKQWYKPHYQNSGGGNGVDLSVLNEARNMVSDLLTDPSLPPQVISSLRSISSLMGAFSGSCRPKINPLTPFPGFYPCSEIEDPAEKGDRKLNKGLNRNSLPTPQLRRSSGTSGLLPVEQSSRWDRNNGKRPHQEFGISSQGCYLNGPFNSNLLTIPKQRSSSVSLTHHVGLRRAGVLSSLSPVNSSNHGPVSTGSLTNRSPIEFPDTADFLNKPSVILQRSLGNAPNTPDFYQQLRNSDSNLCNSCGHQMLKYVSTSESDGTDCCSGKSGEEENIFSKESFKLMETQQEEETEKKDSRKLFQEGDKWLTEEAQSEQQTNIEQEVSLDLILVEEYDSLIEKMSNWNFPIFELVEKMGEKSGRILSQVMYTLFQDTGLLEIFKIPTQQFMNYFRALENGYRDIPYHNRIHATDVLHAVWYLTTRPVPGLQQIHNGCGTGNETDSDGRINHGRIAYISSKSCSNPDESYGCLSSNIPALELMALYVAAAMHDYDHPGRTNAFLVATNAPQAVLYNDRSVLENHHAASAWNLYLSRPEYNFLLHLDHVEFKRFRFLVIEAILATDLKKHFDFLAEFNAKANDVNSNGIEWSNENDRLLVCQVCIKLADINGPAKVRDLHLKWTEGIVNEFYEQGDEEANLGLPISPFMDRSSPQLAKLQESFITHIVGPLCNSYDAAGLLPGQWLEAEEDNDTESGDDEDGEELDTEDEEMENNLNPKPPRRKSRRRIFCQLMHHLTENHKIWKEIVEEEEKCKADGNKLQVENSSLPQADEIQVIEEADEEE
clearance [1] [mL/min/kg],predicted maximal oral bioavailability (Fmax) [2] [%],IC50 (human full length PDE3B) [nM],IC50 (human full length PDE3A),EC50 (HeLa cells) [nM],IC50 (SKMEL3) [nM],IC50 (HeLa) [nM],IC50 (A549) [nM],SMILES,response to cytotoxic effects (PDE3A-CRISPR A2058 cells; ectopic expression of GFP),response to cytotoxic effects (PDE3A-CRISPR A2058 cells; ectopic expression of PDE3B),"response to cytotoxic effects (PDE3A-CRISPR A2058 cells; ectopic expression of PDE3B, listed as compound 1)",IC50 (IGR37) [nM],anti-tumor efficacy [3],T/C (mean final tumor weight of treatment versus control) (IGR-37 xenograft) [b)*],T/C (mean tumor area of treatment versus control) (HeLa xenograft) [a)*],T/C (mean final tumor weight of treatment versus control) (A2058 xenograft) [b)*],T/C (mean final tumor weight of treatment versus control) (SK-MEL3 xenograft) [b)*]
28.3,49,,,,,,,"C[C@@H]1CC(=O)NN=C1c1ccc(N2CCOCC2)c(F)c1 [(5R)-6-[3-fluoro-4-(morpholin-4-yl)phenyl]-5-methyl-4,5-dihydropyridazin-3(2H)-one, reference compound]",,,,,,,,,
,,11,4 nM,1.9,,,,"C[C@@H]1CC(=O)NN=C1c1cc(Cl)c(N2CCOCC2)c(Cl)c1 [Compound 2, 6-[3,5-dichloro-4-(morpholin-4-yl)phenyl]-5-methyl-4,5-dihydropyridazin-3(2H)-one]",,,,,,,,,
12.8,66,,5 nM and 4.6 nM,1.1,1.01,0.852,> 600,"C[C@@H]1CC(=O)NN=C1c1cc(F)c(N2CCOCC2)c(F)c1 [Compound 1, (5R)-6-[3,5-difluoro-4-(morpholin-4-yl)phenyl]-5-methyl-4,5-dihydropyridazin-3(2H)-one]",lack of response,re-sensitized,restores sensitivity,2.19,potent anti-tumor efficacy,0.11,0.01,0.07,0.05
